# Columns and labels:
# [1] = Chemisorption to aluminum hydroxide ("Alum") quantified by liquid chromatography-mass spectrometry; type: physicochemical
# Text: Chemisorption was quantified by liquid chromatography-mass spectrometry. When appropriate ratios of the adjuvant and aluminum hydroxide are used, all of the adjuvant is bound to alum. This ensures delivery of the adjuvant to the draining lymph nodes, and minimizes systemic exposure. It is important not to exceed the ratio to avoid the presence of excess small molecule adjuvant. […] The ratio can range from 1:10 (mg Compound 1:mL aluminum hydroxide gel) to 10:1, or from 1:8 to 8:1, or 1:5 to 5:1; or 1:2 to 2:1, or about 1:1.
# The Compound is chemisorbed onto aluminum hydroxide to form an adjuvant complex referred to herein as (“Alhydroxiquim-II”). The trihydroxybenzyl appendage of the adjuvant Compound 1 ligand-exchanges with the hydroxyl groups of aluminum hydroxide (chemisorption). When appropriate ratios of the adjuvant and aluminum hydroxide are used, all of the adjuvant is bound to alum. This ensures delivery of the adjuvant to the draining lymph nodes, and minimizes systemic exposure. It is important not to exceed the ratio to avoid the presence of excess small molecule adjuvant.
# Chemisorption was quantified by liquid chromatography-mass spectrometry.
# [2] = human trials; cited from earlier work
# [3] = 10 mg of the small-molecule to 10 mL of standard Alhydrogel (10 mg of aluminum content/mL)
Structure (SMILES),"binding to aluminum hydroxide gel (Alhydrogel) [1, 3]","concentrations of free small molecule [1, 3]","chemisorption to “Alum” ([1]; quantified by LC-MS, FIG. 2)","tolerability (systemic side effects including fever, headache, malaise, and myalgia) [2]"
"CCCCc1nc2c(N)nc3ccccc3c2n1Cc1cccc(CNC(=O)c2cc(O)c(O)c(O)c2)c1 [Compound 1, N-(3-((4-amino-2-butyl-1H-imidazo[4,5-c]quinolin-1-yl)methyl)benzyl)-3,4,5-trihydroxybenzamide]",complete binding,undetectable,saturable,
CCOCc1nc2c(N)nc3ccccc3c2n1CC(C)(C)O [Resiquimod],,,,poorly tolerated
